Data set [1] concerns patients with glucose transporter 1 deficiency syndrome (GLUT1). As to conditions: cited from earlier work.
The nature of data set [2]: Ketotic efficiency (net elevation of circulating ketones over time per dose). As to conditions: person at rest, concentration of DBHB + DBHV in composition with D-1,3BD; for 1 hour ketotic efficiency: 1 hour post-administration; for 2 hours ketotic efficiency: 2 hours post-administration. The class given is in vivo, human. The source says:
(§1) Examples include using a composition including D-BHB, D-BHV, and D-1,3BD in a subject at rest. The ketotic efficiency represents the net elevation of circulating ketones a ketone supplement affects over time in an individual. Ketotic efficiency may be represented as:
where mMol/L is the concentration of circulating p-hydroxybutyrate in the blood, g is the total dose of the combined D-BHB, D-BHV, and D-1,3,BD in grams, kg is the mass of the individual in kilograms, and t is an increment of time in minutes.
The ketotic efficiency of the D-BHB, D-BHV, and D-1,3BD blend measured over of one hour in this exemplary study is 43% to 104% greater than the administration of pure (D)-1,3 butanediol or pure (D)-β-hydroxybutyric acid alone, respectively. While this example pertains to a fasted subject at rest, the relative utility of blended vs pure constituents has also been observed in fed and active subjects.
FIG. 2 represents the expected ketosis for a person at rest with a 0.13 g/kg dose of (D)-β-hydroxybutyric acid, (D)-β-hydroxyvaleric acid, and (D)-1,3 butanediol over time for the periods shown. […] Administration of examples in accordance with the present disclosure are expected to cause efficient, prolonged rises in circulating blood ketone levels in a manner that is unexpected based on the current literature. As shown in the following table, the highest efficiency at both 1 and 2 hours post-administration was obtained at 45% D-BHB+D-BHV (0.96:0.04) to 55% D-1,3BD and the lowest efficiency was observed when administering D-BHB or D-1,3BD alone.

Data set [3] is described as follows: Increase in circulating ketone level after administration of D-BHB, D-BHV and D-1,3BD in various ratios, subjects at rest. It counts as in vivo, human. As to conditions: for Max change in mMol/L (increase in circulating ketone level): 10 g dose, three human subjects at rest, composition given as % D-BHB acid; for prolonged rise of blood ketone levels: based on measured plasma levels of FIG. 1.
Excerpt: as §1
As illustrated by the examples of FIG. 1, these exemplary compositions can advantageously elevate circulating ketones by approximately two times greater than other known compositions. Such a composition can sustain ketonemia for longer than either D-BHB or D-1,3BD can when ingested alone by a subject of a given weight as shown by the 100% line (i.e., contains D-BHB, but not D-1,3BD) and the 0% line (i.e., contains only D-1,3BD, but not D-BHB).
As shown in the following table, the increase in circulating ketone level with a 10 g dose in three human subjects at rest was maximal at between 45-55% D-BHB in the tested compositions.

For `CCCCCCC(=O)OCC(COC(=O)CCCCCC)OC(=O)CCCCCC` [triheptanoin, Triheptanoin], in data set [1], the “decrease of paroxysmal non-epileptic manifestations” value was 90%.
With `CC(O)CC(=O)O` (stereo not drawn) [100%, (D)-β-hydroxybutyric acid], in data set [2], the “1 hour ketotic efficiency” value amounted to 335 kg·mmol·min/g/L and the “2 hours ketotic efficiency” value worked out at 566 kg·mmol·min/g/L. Moreover, in data set [3], the “Max change in mMol/L (increase in circulating ketone level)” value was 0.9 mmol/L and the “prolonged rise of blood ketone levels” value is “A similar result”.
On the same counts, the results for `CC(O)CCO` (stereo not drawn) [0%, (D)-1,3 butanediol] are 266 kg·mmol·min/g/L, 462 kg·mmol·min/g/L, 0.8 mmol/L and “does not cause a prolonged rise of blood ketone levels”.

The record behind these values is patent US20240368644A1, “METHODS TO PRODUCE THERAPEUTIC FORMULATIONS COMPRISING HYDROXYBUTIRATE AND HYDROXYVALERATE, THERAPEUTIC FORMULATIONS AND USES THEREOF” (PHB Industrial S.A., priority 2021, published 2024).
